Results: patent US11492405B2, “Reducing systemic regulatory t cell levels or activity for treatment of disease and injury of the CNS” (Yeda Research and Development Co. Ltd, priority 2014, dated 2022)
Entries after “also recorded” stand apart in the source; their conditions may differ.

What was measured:
p300 = p300 (Mus musculus, UniProt B2RWS6); conditions: Liu et al, 2013; cited from earlier work
aged mice (18 months) = test: p300 inhibition in aged mice, flow cytometry of spleen and CP; assay type: in vivo, mouse; conditions: p300i 8.9 mg/kg/d i.p. for 1 week vs DMSO, examined a day after cessation
Procedure: Mice were transcardially perfused with PBS, and tissues were treated as previously described (Baruch et al, 2013). Brains were dissected and the different brain regions were removed under a dissecting microscope (Stemi DV4; Zeiss) in PBS, and tissues were dissociated using the gentleMACS™ dissociator (Miltenyi Biotec). Choroid plexus tissues were isolated from the lateral, third and fourth ventricles of the brain, incubated at 37° C. for 45 min in PBS (with Ca^2+/Mg^2+) containing 400 U/ml collagenase type IV (Worthington Biochemical Corporation), and then manually homogenized by pipetting. Spleens were mashed with the plunger of a syringe and treated with ACK (ammonium chloride potassium) lysing buffer to remove erythrocytes. In all cases, samples were stained according to the manufacturers' protocols. All samples were filtered through a 70 μm nylon mesh, and blocked with anti-Fc CD16/32 (1:100; BD Biosciences). For intracellular staining of IFN-γ, the cells were incubated with […] (10 ng/ml; Sigma-Aldrich) and ionomycin (250 ng/ml; Sigma-Aldrich) for 6 h, and Brefeldin-A (10 μg/ml; Sigma-Aldrich) was added for the last 4 h. Intracellular labeling of cytokines was done with BD Cytofix/Cytoperm™ Plus fixation/permeabilization kit (cat. no. 555028). […] Cells were analyzed on an LSRII cytometer (BD Biosciences) using FlowJo software. […]

5XFAD AD-Tg mice [1] = test: Soluble Aβ (sAβ) ELISA of cerebral brain parenchyma in AD-Tg mice; assay type: in vivo, mouse
Procedure: Inhibition of p300 in mice was performed similarly to previously described (Liu et al, 2013). p300i (C646; Tocris Bioscience) was dissolved in DMSO and injected i.p. daily (8.9 mg kg^−1 d^−1, i.p.) for 1 week. Vehicle-treated mice were similarly injected with DMSO.
Tissue homogenization and sAβ protein extraction was performed as previously described (Schmidt et al, 2005). Briefly, cerebral brain parenchyma was dissected and snap-frozen and kept at −80° C. until homogenization. Proteins were sequentially extracted from samples to obtain separate fractions containing proteins of differing solubility. Samples were homogenized in 10 volumes of ice-cold tissue homogenization buffer, containing 250 mM of sucrose, 20 mM of Tris base, 1 mM of ethylenediaminetetraacetic acid (EDTA), and 1 mM of ethylene glycol tetraacetic acid (pH 7.4), using a ground glass pestle in a Dounce homogenizer. After six strokes, the homogenate was mixed 1:1 with 0.4% diethylamine (DEA) in a 100-mM NaCl solution before an additional six strokes, and then centrifuged at 135,000 g at 4° C. for 45 min. The supernatant (DEA-soluble fraction containing extracellular and cytosolic proteins) was collected and neutralized with 10% of 0.5M of Tris-HCl (pH 6.8). Aβ1-40 and Aβ1-42 were individually measured by enzyme-linked immunosorbent assay (ELISA) from the soluble fraction using commercially available kits (Biolegend; #SIG-38954 and #SIG-38956, respectively) according to the manufacturer instructions.

5XFAD AD-Tg mice [2] = test: Aβ plaque quantitation (immunohistochemistry) in 5XFAD AD-Tg mice; assay type: in vivo, mouse
Procedure: Tissue processing and immunohistochemistry were performed on paraffin embedded sectioned mouse (6 μm thick) and human (10 μm thick) brains. For human ICAM-1 staining, primary mouse anti-ICAM (1:20 Abcam; ab2213) antibody was used. Slides were incubated for 10 min with 3% H2O2, and a secondary biotin-conjugated anti-mouse antibody was used, followed by biotin/avidin amplification with Vectastain ABC kit (Vector Laboratories). Subsequently, 3,3′-diaminobenzidine (DAB substrate) (Zytomed kit) was applied; slides were dehydrated and mounted with xylene-based mounting solution. For tissue stainings, mice were transcardially perfused with PBS prior to tissue excision and fixation. CP tissues were isolated under a dissecting microscope (Stemi DV4; Zeiss) from the lateral, third, and fourth ventricles of the brain. For whole mount CP staining, tissues were fixated with 2.5% paraformaldehyde (PFA) for 1 hour at 4° C., and subsequently transferred to PBS containing 0.05% sodium azide. Prior to staining, the dissected tissues were washed with PBS and blocked (20% horse serum, 0.3% Triton X-100, and PBS) for 1 h at room temperature. Whole mount staining with primary antibodies (in PBS containing 2% horse serum and 0.3% Triton X-100), or secondary antibodies, was performed for 1 h at room temperature. Each step was followed by three washes in PBS. The tissues were applied to slides, mounted with Immu-mount (9990402, from Thermo Scientific), and sealed with cover-slips. For staining of sectioned brains, two different tissue preparation protocols (paraffin embedded or microtomed free-floating sections) were applied, as previously described (Baruch et al, 2013; Kunis et al, 2013). […] Microscopic analysis, was performed using a fluorescence microscope (E800; Nikon) or laser-scanning confocal microscope (Carl Zeiss, Inc.). The fluorescence microscope was equipped with a digital camera (DXM 1200F; Nikon), and with either a 20×NA 0.50 or 40×NA 0.75 objective lens (Plan Fluor; Nikon). […] For quantification of staining intensity, total cell and background staining was measured using ImageJ software (NIH), and intensity of specific staining was calculated, as previously described (Burgess et al, 2010). […]
From each brain, 6 μm coronal slices were collected, and eight sections per mouse, from four different pre-determined depths throughout the region of interest (dentate gyrus or cerebral cortex) were immunostained. […]

Chain of p300 (B2RWS6 whole entry): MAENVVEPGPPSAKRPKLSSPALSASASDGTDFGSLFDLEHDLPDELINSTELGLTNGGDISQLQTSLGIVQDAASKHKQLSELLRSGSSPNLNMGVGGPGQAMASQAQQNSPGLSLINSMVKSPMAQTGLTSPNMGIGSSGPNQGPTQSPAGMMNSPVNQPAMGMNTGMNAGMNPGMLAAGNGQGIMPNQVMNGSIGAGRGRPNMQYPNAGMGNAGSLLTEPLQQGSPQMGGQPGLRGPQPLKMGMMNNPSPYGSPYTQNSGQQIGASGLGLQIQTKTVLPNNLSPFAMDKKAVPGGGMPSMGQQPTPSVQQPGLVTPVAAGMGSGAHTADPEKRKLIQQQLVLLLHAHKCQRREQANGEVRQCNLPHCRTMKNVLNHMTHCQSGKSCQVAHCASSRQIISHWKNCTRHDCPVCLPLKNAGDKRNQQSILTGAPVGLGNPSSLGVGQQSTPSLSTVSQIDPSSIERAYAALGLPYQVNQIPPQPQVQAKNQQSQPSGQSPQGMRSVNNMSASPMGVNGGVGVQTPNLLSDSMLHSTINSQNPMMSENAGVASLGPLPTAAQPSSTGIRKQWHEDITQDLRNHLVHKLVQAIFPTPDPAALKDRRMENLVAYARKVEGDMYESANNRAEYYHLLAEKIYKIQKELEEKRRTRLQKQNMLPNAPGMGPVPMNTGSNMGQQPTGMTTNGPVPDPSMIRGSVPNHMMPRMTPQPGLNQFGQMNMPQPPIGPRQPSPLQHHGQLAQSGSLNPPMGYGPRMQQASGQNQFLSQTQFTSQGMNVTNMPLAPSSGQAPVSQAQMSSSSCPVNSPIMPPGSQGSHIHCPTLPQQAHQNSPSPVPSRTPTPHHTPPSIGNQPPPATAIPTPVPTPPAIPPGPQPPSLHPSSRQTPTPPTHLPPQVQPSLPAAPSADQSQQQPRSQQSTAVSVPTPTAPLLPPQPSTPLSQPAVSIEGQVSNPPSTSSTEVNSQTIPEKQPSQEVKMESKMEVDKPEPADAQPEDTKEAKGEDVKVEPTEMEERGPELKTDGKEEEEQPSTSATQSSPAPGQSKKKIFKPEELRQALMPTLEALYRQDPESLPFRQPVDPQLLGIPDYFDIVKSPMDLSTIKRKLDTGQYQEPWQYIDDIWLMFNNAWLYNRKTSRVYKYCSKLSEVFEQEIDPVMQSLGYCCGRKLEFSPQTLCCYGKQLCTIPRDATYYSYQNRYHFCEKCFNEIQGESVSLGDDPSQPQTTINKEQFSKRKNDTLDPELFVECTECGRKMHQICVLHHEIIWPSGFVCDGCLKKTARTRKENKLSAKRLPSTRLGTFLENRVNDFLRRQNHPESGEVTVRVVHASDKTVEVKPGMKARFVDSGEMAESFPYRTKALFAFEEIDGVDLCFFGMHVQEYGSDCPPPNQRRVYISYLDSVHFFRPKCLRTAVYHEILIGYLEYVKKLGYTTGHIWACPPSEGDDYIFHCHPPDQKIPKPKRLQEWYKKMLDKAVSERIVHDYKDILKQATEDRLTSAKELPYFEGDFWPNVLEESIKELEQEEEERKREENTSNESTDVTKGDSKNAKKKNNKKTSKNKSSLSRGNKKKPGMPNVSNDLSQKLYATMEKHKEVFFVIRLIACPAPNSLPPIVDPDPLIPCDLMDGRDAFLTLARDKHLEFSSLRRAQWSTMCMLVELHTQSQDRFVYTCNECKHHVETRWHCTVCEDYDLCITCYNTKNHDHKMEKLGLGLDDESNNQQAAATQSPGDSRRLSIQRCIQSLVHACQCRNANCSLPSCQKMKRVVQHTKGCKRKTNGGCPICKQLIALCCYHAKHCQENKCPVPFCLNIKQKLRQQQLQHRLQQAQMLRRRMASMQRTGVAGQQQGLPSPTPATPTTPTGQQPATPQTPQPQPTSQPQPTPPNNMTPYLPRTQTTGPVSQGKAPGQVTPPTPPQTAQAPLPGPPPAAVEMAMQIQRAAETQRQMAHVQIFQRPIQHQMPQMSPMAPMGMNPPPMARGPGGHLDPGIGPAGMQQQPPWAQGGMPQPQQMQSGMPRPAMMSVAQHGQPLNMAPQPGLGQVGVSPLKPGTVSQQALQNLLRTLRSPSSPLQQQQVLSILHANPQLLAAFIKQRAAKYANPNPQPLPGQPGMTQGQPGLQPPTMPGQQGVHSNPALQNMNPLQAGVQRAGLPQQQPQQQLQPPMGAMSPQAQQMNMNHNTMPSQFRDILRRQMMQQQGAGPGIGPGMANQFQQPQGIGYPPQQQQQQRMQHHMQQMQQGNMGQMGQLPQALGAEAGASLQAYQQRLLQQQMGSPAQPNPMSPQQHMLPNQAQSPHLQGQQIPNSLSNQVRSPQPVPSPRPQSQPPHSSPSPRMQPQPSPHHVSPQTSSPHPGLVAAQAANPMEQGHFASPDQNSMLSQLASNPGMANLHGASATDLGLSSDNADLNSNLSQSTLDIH

CC1=NN(c2ccc(C(=O)O)cc2)C(=O)/C1=C\c1ccc(-c2cc(C)c(C)cc2[N+](=O)[O-])o1 [p300i, 4-(4-((5-(4,5-dimethyl-2-nitrophenyl)furan-2-yl)methylene)-3-methyl-5-oxo-4,5-dihydro-1H-pyrazol-1-yl)benzoic acid]
effect on Treg suppressive activities (p300): affect Treg suppressive activities while leaving protective T effector cell responses intact | IFN-γ-expressing cells in the CP (aged mice (18 months)): elevated levels; also recorded: elevation | IFN-γ-expressing cells in the spleen (aged mice (18 months)): elevated levels; also recorded: elevation | cerebral sAβ (Aβ1-40/Aβ1-42) levels (5XFAD AD-Tg mice [1]; one course of p300i): effective in reducing cerebral sAβ | effect on sAβ1-42 (5XFAD AD-Tg mice [1]; repeated courses of p300i compared with one course): stronger | cerebral sAβ (Aβ1-40/Aβ1-42) levels (5XFAD AD-Tg mice [1]; two courses of p300i with interval of 1 month): effective in reducing cerebral sAβ | cerebral Aβ plaque load (5XFAD AD-Tg mice [2]; 10-month old AD-Tg mice, p300i for 1 week, examined 3 weeks later): significant reduction | reduction of cerebral plaque load (5XFAD AD-Tg mice [2]; single course of p300i, examined 2 months later): evident even two months after a single course of treatment | reduction of cerebral plaque load (5XFAD AD-Tg mice [2]; two courses of p300i with 1-month interval, compared with single course): stronger
